Source: patent US8637038B2, “Methods for inhibiting allograft rejection” (Rigel Pharmaceuticals, Inc., priority 2011, dated 2014)

How the values were obtained:
Format in all cases: in vivo, rat
[1] = test system: Lew recipients of heterotopic BN heart transplants; experiment: Five-day heart allograft study: donor-specific IgM antibodies by flow cytometry; settings: LD and HD groups; five days; p<0.001
Method: (§1) Compound I and Compound III were provided by Rigel (South San Francisco, Calif.) and Tacrolimus was provided by Astellas (Munich, Germany). All drugs were administrated orally each in two different concentrations: Compound I LD (15 mg/kg BID; n=6) and HD (60 mg/kg BID; n=6); Compound III LD (5 mg/kg BID; n=6) and HD (20 mg/kg BID; n=6); Tac LD (1 mg/kg QD; n=6) and HD (4 mg/kg QD; n=6). Administration of all drugs was performed every day at the same time points. Tacrolimus was applied only once a day (QD) every 24 hours. During administration of Compound I (BID) and Compound III (BID) a 12 hour pause was kept in between each drug application.
(§2) Lew recipients of heterotopic BN heart transplants were randomly assigned to their group. Animals were either left untreated (groups 1 and 2; see Table 1,5-day study) or received their group specific medication (groups 3-8; see Table 1,5-day study) by oral application. An untreated syngeneic transplant group Lew-Lew was generated as control.
Donor splenocytes were isolated and erythrocytes were lysed using the ACK buffer (Lonza, Walkersville, Md.). Sera from recipient rats were decomplemented and equal amounts of sera and splenocyte suspensions (5×10^6 cells/ml) were incubated for 30 minutes at room temperature. IgM antibodies were stained by incubation of the cells with a conjugated mouse antibody specific for the Fc-portion of rat IgM (Monoclonal Anti-rat IGM, Clone RTM-32, Sigma) followed by incubation with a 488-conjugated secondary antibody (Invitrogen). Cells were washed with PBS, fixed with 2% paraformaldehyde (Science Services), and analyzed on a FACSCalibur™ system (BD Biosciences). Fluorescence data were expressed as mean fluorescence intensity (MFI) using Flowjo software (Tree Star, Inc., Ashland, Oreg.).

[2] = test system: Lew recipients of heterotopic BN heart transplants; experiment: Five-day heart allograft study: H+E histology, ISHLT rejection classification; settings: HD (Compound I 60 mg/kg BID, Compound III 20 mg/kg BID, Tac 4 mg/kg QD); five days after transplantation
Source text: Male Brown Norway (BN) and Lewis (Lew) rats weighing 350 g were purchased from Harlan (Indianapolis, Ind.) and were housed under conventional conditions. All animals were fed standard rat chow and water ad libitum and received humane care in compliance with the Principles of Laboratory Animal Care formulated by the National Society for Medical Research and the Guide for the care and Use of Laboratory Animals published by the National Institutes of Health (National Institutes of Health publication No. 85-23, revised 1985). Allogeneic (BN-to-Lew) and syngeneic (Lew-to-Lew) heterotopic heart transplantations were performed as described previously (Ono et al., J. Thorac. Cardiovasc. Surg. 57:225-229, 1969). In brief, rats were anaesthetized using 2% isoflurane. The donor received an intravenous bolus of 500 I.U. heparin. Cardiac arrest was achieved using 20 ml Bretschneider solution (Custodiol, Dr. F. Koehler Chemie, Bensheim, Germany). […] Heart-beating score was assessed directly after transplantation for each animal from score 0 (no palpable contraction) to 4 (strong and regular contraction). Only animals with beating scores of 4 were included into the study. Compound I and Compound III were provided by Rigel (South San Francisco, Calif.) and Tacrolimus was provided by Astellas (Munich, Germany). All drugs were administrated orally each in two different concentrations: Compound I LD (15 mg/kg BID; n=6) and HD (60 mg/kg BID; n=6); […] Administration of all drugs was performed every day at the same time points. Tacrolimus was applied only once a day (QD) every 24 hours. During administration of Compound I (BID) and Compound III (BID) a 12 hour pause was kept in between each drug application. Lew recipients of heterotopic BN heart transplants were randomly assigned to their group. […] An untreated syngeneic transplant group Lew-Lew was generated as control. Grafts were recovered five days after transplantation and fixed in 4% paraformaldehyde (Science Services, Munich, Germany), dehydrated and embedded in paraffin. […] Waldeck, Carl Roth GmbH, Munster, Germany) and examined by standard light microscopy. The extent of acute cardiac graft rejection in H+E staining was examined by an experienced pathologist according to the 2004 ISHLT working formulation (Stewart et al., J. Heart Lung Transplant. 24:1710-1720, 2005).

[3] = test system: Lew recipients of heterotopic BN heart transplants; experiment: Five-day heart allograft study: ELISPOT (IFN-γ, IL-4, IL-17) of recipient splenocytes; settings: LD groups (Compound I 15 mg/kg BID, Compound III 5 mg/kg BID, Tac 1 mg/kg QD); five days
Method: as §1, §2
Lymphocytes were isolated from freshly harvested spleens. ELISPOT assays with 1×10^7/ml mitomycin-inhibited BN splenocytes and 1×10^6/ml Lew splenocytes were performed according to the manufacturer's protocol (BD Biosciences). 96-well plates were coated with IFN-γ, IL-17, and IL-4 to assess T helper cell (Th)1-, Th17-, and Th2-responses independently. All assays were performed in quadruplicates. Spots were automatically enumerated using an ELISPOT plate reader (CTL, Cincinnati, Ohio) for scanning and analyzing.

[4] = test system: BN-to-Lew heterotopic heart transplantations; experiment: Graft survival study after 10-day treatment, with combination index; settings: no medication 7±0 days
Source text: Male Brown Norway (BN) and Lewis (Lew) rats weighing 350 g were purchased from Harlan (Indianapolis, Ind.) and were housed under conventional conditions. All animals were fed standard rat chow and water ad libitum and received humane care in compliance with the Principles of Laboratory Animal Care formulated by the National Society for Medical Research and the Guide for the care and Use of Laboratory Animals published by the National Institutes of Health (National Institutes of Health publication No. 85-23, revised 1985). Allogeneic (BN-to-Lew) and syngeneic (Lew-to-Lew) heterotopic heart transplantations were performed as described previously (Ono et al., J. Thorac. Cardiovasc. Surg. 57:225-229, 1969). In brief, rats were anaesthetized using 2% isoflurane. The donor received an intravenous bolus of 500 I.U. heparin. Cardiac arrest was achieved using 20 ml Bretschneider solution (Custodiol, Dr. F. Koehler Chemie, Bensheim, Germany). […] Heart-beating score was assessed directly after transplantation for each animal from score 0 (no palpable contraction) to 4 (strong and regular contraction). Only animals with beating scores of 4 were included into the study.
as §1
BN-to-Lew heterotopic heart transplantations were performed. Recipient animals were treated for 10 days according to Table 1 (10 day survival study group) and graft survival was monitored by daily palpation of the beating donor heart through the abdominal wall. Scoring was assessed according to heart-beating score of 0 to 4. The time of rejection was defined as the last day of palpable cardiac contractions and graft rejection was confirmed by laparotomy.
The median-effect principle of Chou (in Synergism and Antagonism in Chemotherapy, Chou and Rideout, eds, pp. 61-102, Academic Press, 1991) is based on the premise that the effect of each agent is related to its dose and, therefore, can be calculated using the following equation: (fa/fu)=(D/Dm)m, where fa and fu represent the fractions of the system that are affected (% inhibition or rather days of survival beyond controls) and unaffected (1−fa), respectively, by the drug at dose D. Full protection (fa=1) is defined as at least a 28-day survival of allografts. Dm is the dose required for 50% inhibition (ED50), the median effect (m) is a coefficient that describes the sigmoidicy of the dose-effect curve. The interaction between two drugs is assessed by the combination index (CI) equation for the doses to achieve x % inhibition:
[formula] for the mutually nonexclusive case, where each drug has a different mode of action. A computer software program was used to determine the dose-effect parameters (Dm, m, and r), and the CI values (CalcuSyn, Biosoft, Cambridge, United Kingdom).
Graft survival was monitored by daily palpation of the beating donor heart through the abdominal wall and treatment of animals was stopped after 10 days.

With `C=CC[C@@H]1/C=C(\C)C[C@H](C)C[C@H](OC)[C@H]2O[C@@](O)(C(=O)C(=O)N3CCCC[C@H]3C(=O)O[C@H](/C(C)=C/[C@@H]3CC[C@@H](O)[C@H](OC)C3)[C@H](C)[C@@H](O)CC1=O)[C@H](C)C[C@@H]2OC` [Tac, Tacrolimus, reference compound] as the molecule, how does the “donor-specific IgM antibodies (DSA) vs. no medication” value [1] read?
Its value is “significant suppression”.

And the “hearts with ISHLT score of 1” value [2]?
Its value is 67%.

And the “hearts with ISHLT score of 2” value [2]?
The value was 33%.

What about the “IFN-γ spot frequency (ELISPOT) compared to no medication group” value [3] of the same molecule?
The value was “no significant reduction”.

And the “graft survival, mean” value ([4]; HD (Compound I 60 mg/kg BID, Compound III 20 mg/kg BID, Tac 4 mg/kg QD) for 10 days)?
The value was 20 ± 3 days.

What about the “graft survival, mean” value ([4]; LD (Compound I 15 mg/kg BID, Compound III 5 mg/kg BID, Tac 1 mg/kg QD) for 10 days) of the same molecule?
The value was 13 ± 2 days.
